Data set [1] concerns A549. Briefly: Antiproliferative activity against human A549 cells after 96 hrs by MTT assay. Format: functional, cell-based. Particulars: A549, 96 h. A general note: Tetrazolium assays rely on reduction of a dye to a coloured formazan, in cell work by metabolically active cells.
Data set [2] deals with Bel-7402. Briefly: Antiproliferative activity against human Bel7402 cells after 96 hrs by MTT assay. Format: functional, cell-based. Particulars: Bel-7402, 96 h.
In data set [3] the test system is BGC-823. Nature of the data set: Antiproliferative activity against human BGC823 cells after 96 hrs by MTT assay. It is filed as functional, cell-based. Particulars: BGC-823, 96 h.
Data set [4] concerns HCT-8. Nature of the data set: Antiproliferative activity against human HCT8 cells after 96 hrs by MTT assay. Format: functional, cell-based. To be noted: HCT-8, 96 h.
The test system of data set [5] is A2780. Briefly: Antiproliferative activity against human A2780 cells after 96 hrs by MTT assay. It is filed as functional, cell-based. To be noted: A2780, 96 h.
Data set [6] concerns A549. Nature of the data set: Cell cycle arrest in human A549 cells assessed as accumulation at G0/G1 phase at 8 nM after 24 hrs by propidium iodide staining based flow cytometry (reference value: 58.84%). Format: functional. On the technique in general: A flow cytometer gives signals particle by particle.
Data set [7] has as its system A549. Nature of the data set: Cell cycle arrest in human A549 cells assessed as accumulation at S phase at 8 nM after 24 hrs by propidium iodide staining based flow cytometry (reference value: 32.80%). Format: functional.
Data set [8] relates to A549. Nature of the data set: Cell cycle arrest in human A549 cells assessed as accumulation at G2/M phase at 8 nM after 24 hrs by propidium iodide staining based flow cytometry (reference value: 8.36%). Format: functional.
Data set [9] relates to A549. Nature of the data set: Cell cycle arrest in human A549 cells assessed as accumulation at G0/G1 phase at 25 nM after 24 hrs by propidium iodide staining based flow cytometry (reference value: 58.84%). Format: functional.
Data set [10] relates to A549. Briefly: Cell cycle arrest in human A549 cells assessed as accumulation at S phase at 25 nM after 24 hrs by propidium iodide staining based flow cytometry (reference value: 32.80%). It is filed as functional.
The subject of data set [11] is A549. Nature of the data set: Cell cycle arrest in human A549 cells assessed as accumulation at G2/M phase at 25 nM after 24 hrs by propidium iodide staining based flow cytometry (reference value: 8.36%). Format: functional.
In data set [12] the test system is A549. Briefly: Cell cycle arrest in human A549 cells assessed as accumulation at G0/G1 phase at 75 nM after 24 hrs by propidium iodide staining based flow cytometry (reference value: 58.84%). Format: functional.
Data set [13] deals with A549. Briefly: Cell cycle arrest in human A549 cells assessed as accumulation at S phase at 75 nM after 24 hrs by propidium iodide staining based flow cytometry (reference value: 32.80%). It is filed as functional.
The subject of data set [14] is A549. Nature of the data set: Cell cycle arrest in human A549 cells assessed as accumulation at G2/M phase at 75 nM after 24 hrs by propidium iodide staining based flow cytometry (reference value: 8.36%). It is filed as functional.
In data set [15] the test system is Mus musculus. Nature of the data set: Toxicity in BALB/c nude mouse xenografted with human Bel7402 cells assessed as body weight at 5 mg/kg, ip administered once in a week for two weeks starting from 6 days post tumor transplantation measured every 3 days for 21 days (reference value: 14.5 g). Format: organism-based. To be noted: in vivo, 504 h. Background: Xenograft models place foreign cells or tissue in a host animal.

The subject of data set [16] is Bel-7402. Briefly: Antitumor activity against human Bel7402 cells xenografted in BALB/c nude mouse assessed as tumor growth inhibition at 5 mg/kg, ip administered once in a week for two weeks starting from 6 days post tumor transplantation measured 27 to 30 days post tumor transplantation relative to control. Format: functional. Particulars: Bel-7402, ip, read-out: TGI.

The test system of data set [17] is Escherichia coli. Briefly: Inhibition of Escherichia coli topoisomerase 1-mediated relaxation of supercoiled Pcmv-6 plasmid DNA at 1 to 50 uM after 30 mins by ethidium bromide staining based agarose gel electrophoretic analysis.
The test system of data set [18] is Bel-7402. Briefly: Antitumor activity against human Bel7402 cells xenografted in BALB/c nude mouse assessed as tumor volume at 5 mg/kg, ip administered once in a week for two weeks starting from 6 days post tumor transplantation measured 27 to 30 days post tumor transplantation relative to control. It is filed as functional.
The test system of data set [19] is Mus musculus. Nature of the data set: Antitumor activity in BALB/c nude mouse xenografted with human Bel7402 cells assessed as tumor volume at 5 mg/kg, ip administered once in a week for two weeks starting from 6 days post tumor transplantation measured every 3 days for 21 days (reference value: […]). To be noted: in vivo, 504 h.

The structures appear in SMILES notation. The source made the active and inactive calls. The calls are words filed in the database; no cut-off is given here.

A word on the IC50: it is the point on the concentration scale where inhibition reaches its midpoint. What is called T/C is the ratio of treated to control. As for `CC[C@@]1(O)C(=O)OCc2c1cc1n(c2=O)Cc2cc3c(CN(C)C)c(O)ccc3nc2-1` [TOPOTECAN], the IC50 was found to be 7 nM in [1]; 100 nM in data set [2]; 78 nM in data set [3]; 22 nM in [4]; 78 nM in data set [5]. The Activity in data set [6] worked out at 53.22%; in data set [7] it was 35.07%; in data set [8] it was 11.71%; in [9] it was 55.73%; in [10] it was 31.44%; in data set [11], 12.83%. Also, the Activity is given as 43.81% in data set [12], 23.36% in [13], 32.83% in data set [14] and “Non-Toxic” in data set [15]. Further, the inhibition in vivo at 5 mg/kg in [16] stood at 45.5%. Moreover, the inhibition result in data set [17] was “Active”. Moreover, in [18], the T/C came out at 58.8%. The tumor volume in data set [19] came to 302 mm³.

For the origin of these results see ChEMBL document CHEMBL4000174, “Synthesis and antitumor activity of novel substituted uracil-1'(N)-acetic acid ester derivatives of 20(S)-camptothecins” (Eur J Med Chem, 2017).
